In patent publication US20100267753A1, “METHODS OF TREATING DISORDERS ASSOCIATED WITH PROTEIN KINASE CK2 ACTIVITY” (priority 2009, published 2010):
Entries after “also recorded” stand apart in the source; their conditions may differ.

What was measured:
HIPK3 = HIPK3 (Homo sapiens, UniProt Q9H422); assay: Kinase panel IC-50, HIPK3; format: biochemical
[1] = Pharmacokinetics in rat (IV bolus or oral dose); format: in vivo
Protocol: (§1) The pharmacokinetics properties of drugs were investigated in three species, following an intravenous (IV) bolus or oral (PO) dose of Compound K at the dosages indicated in the chart. Blood samples were collected at predetermined times and the plasma separated. Plasma was separated from the blood samples collected at 5, 15 and 30 minutes and 1, 2, 4, 8 and 24 hours post-dose.
(§2) Drug levels were quantified by the LC/MS/MS method described below. Noncompartmental pharmacokinetic analysis was applied for intravenous administration. A linear trapezoidal rule was used to compute AUC(0-24). The terminal t1/2 and C0 were calculated using the last three and the first three data points, respectively
(§3) Bioanalysis was performed using a Quattro Micro LC/MS/MS instrument in the MRM detection mode, with an internal standard (1S). Briefly, 15 μL plasma samples were prepared for analysis using protein precipitation with 120 μL of acetonitrile. The supernatants were transferred into a 96 well plate and subjected to LC-MS/MS analysis using a Phenomenex Polar-RP HPLC column. The mobile phases were 10 mM NH4HCO3 in water (Solution-A) and 10 mM NH4HCO3 in methanol (Solution-B). The column was initially equilibrated with 25% Solution-B and followed with 100% Solution B over 5 minutes. […] Quantitation of the analytes was performed in the batch mode with two bracketing calibration curves according to the bioanalytical sample list.

[2] = Pharmacokinetics in dog (IV bolus or oral dose); format: in vivo; settings: for AUC(0-inf) / Cmax / half-life / Vd: plasma; for half-life: read-out: Terminal T1/2 (converted); for Vd: read-out: Vdss
Protocol: as §1, §2, §3

[3] = Pharmacokinetic summary across mouse, rat and dog; format: in vivo
Protocol: Particularly for chronic conditions, oral administration is preferred. Typical dosages for oral administration would be approximately 5-500 mg/kg per day.
For some embodiments, delivery of compound K by injection, such as intramuscular or intravenous, may be preferred. […] The dosage for injected delivery (IV) can be about half of the oral dosage since injection bypasses the absorption barriers that reduce oral bioavailability. For delivery by injection, lower doses such as 1-25 mg/kg per day may be used to achieve similar plasma levels of drug.

[4] = tested on: formalin-induced persistent pain; assay: Formalin-induced persistent pain model (flinching); format: in vivo, ICR mice
Protocol: See Hunskaar, et al., “The formalin test in mice: Dissociation between inflammatory and non-inflammatory pain,” Pain, vol. […] 89, 53-63 (2000). These tests were conducted with ICR mice, in accordance with guidelines established by the International Association for the Study of Pain. Compounds of the invention were used as solutions of about 3-20 mg/mL in aqueous solution at about pH 8. […] The test animals were monitored for at least 40 minutes, during which time the number of flinches occurring during each 5-minute period were observed and recorded. A cohort of 12 animals were used for each dose level of each compound tested.
The compounds were administered orally in a single dose, of 30, 100, and 200 mg/kg, one hour prior to injection of formalin Pain response was measured by flinching frequency.

[5] = Phase I clinical study, safety and pharmacokinetics; format: in vivo, human
Protocol: Oral doses are administered twice daily for twenty-one consecutive days of a four week cycle. […] Response by RECIST is determined after every 2 cycles. Serial blood and plasma samples are collected on the first and final dosing days of Cycle 1 (i.e., Day 1 and Day 21) for pharmacokinetic analysis and for pharmacodynamic biomarker evaluations (specifically, total and phosphorylated forms of p21 and Akt).
Patients in Cohorts 1-3 were dosed twice daily (BID) with oral capsules.

HIV-1 = assay: U1 latent infection assay, antiviral (reverse transcriptase); format: cell-based; settings: U1 latent infection assay
Protocol: Histocytic leukemia cell line U937, latently infected with HIV-1, are treated with TNFα to induce virus expression in the presence of test compound. Antiviral activity is determined as a reduction in reverse transcriptase after 72 hr incubation.
TI=TC/IC; also referred to as Therapeutic Index values (TI) or Antiviral Index (AI)
The histocytic leukemia cell line U937, latently infected with HIV-1, was treated with TNFα to induce virus expression in the presence of test compound. Antiviral activity was determined as a reduction in reverse transcriptase after 72 hr incubation. Temacrazine, an inhibitor of HIV transcription initiation, was used as the positive control for the assay.

HIV-1 isolates = assay: PBMC assay, virus production; format: cell-based
Protocol: Acute infection of HIV-1 isolates (CXCR4-tropic HIV-1 Subtype B and CCR5-tropic HIV-1 Subtype) using fresh human PBMCs from multiple donors (PMA and IL-2 stimulated). Antiviral activity determined as a reduction in reverse transcriptase after 7-day incubation.
Antiviral activity was determined as a reduction in reverse transcriptase after 7-day incubation. AZT, a nucleoside analog reverse transcriptase inhibitor, was used as the positive control for the assay.

xenograft tumor = assay: Xenograft tumor growth (pre-clinical); format: in vivo; settings: single agent
[6] = Dog, 1.6 mg/kg IV, different lot
[7] = Dog, 7.7 mg/kg PO, filled capsules, different lot
[8] = Dog, 8.2 mg/kg PO, filled capsules
[9] = thirteen patients with solid tumors, oral BID

Sequence of HIPK3 (Q9H422 whole entry, species assumed): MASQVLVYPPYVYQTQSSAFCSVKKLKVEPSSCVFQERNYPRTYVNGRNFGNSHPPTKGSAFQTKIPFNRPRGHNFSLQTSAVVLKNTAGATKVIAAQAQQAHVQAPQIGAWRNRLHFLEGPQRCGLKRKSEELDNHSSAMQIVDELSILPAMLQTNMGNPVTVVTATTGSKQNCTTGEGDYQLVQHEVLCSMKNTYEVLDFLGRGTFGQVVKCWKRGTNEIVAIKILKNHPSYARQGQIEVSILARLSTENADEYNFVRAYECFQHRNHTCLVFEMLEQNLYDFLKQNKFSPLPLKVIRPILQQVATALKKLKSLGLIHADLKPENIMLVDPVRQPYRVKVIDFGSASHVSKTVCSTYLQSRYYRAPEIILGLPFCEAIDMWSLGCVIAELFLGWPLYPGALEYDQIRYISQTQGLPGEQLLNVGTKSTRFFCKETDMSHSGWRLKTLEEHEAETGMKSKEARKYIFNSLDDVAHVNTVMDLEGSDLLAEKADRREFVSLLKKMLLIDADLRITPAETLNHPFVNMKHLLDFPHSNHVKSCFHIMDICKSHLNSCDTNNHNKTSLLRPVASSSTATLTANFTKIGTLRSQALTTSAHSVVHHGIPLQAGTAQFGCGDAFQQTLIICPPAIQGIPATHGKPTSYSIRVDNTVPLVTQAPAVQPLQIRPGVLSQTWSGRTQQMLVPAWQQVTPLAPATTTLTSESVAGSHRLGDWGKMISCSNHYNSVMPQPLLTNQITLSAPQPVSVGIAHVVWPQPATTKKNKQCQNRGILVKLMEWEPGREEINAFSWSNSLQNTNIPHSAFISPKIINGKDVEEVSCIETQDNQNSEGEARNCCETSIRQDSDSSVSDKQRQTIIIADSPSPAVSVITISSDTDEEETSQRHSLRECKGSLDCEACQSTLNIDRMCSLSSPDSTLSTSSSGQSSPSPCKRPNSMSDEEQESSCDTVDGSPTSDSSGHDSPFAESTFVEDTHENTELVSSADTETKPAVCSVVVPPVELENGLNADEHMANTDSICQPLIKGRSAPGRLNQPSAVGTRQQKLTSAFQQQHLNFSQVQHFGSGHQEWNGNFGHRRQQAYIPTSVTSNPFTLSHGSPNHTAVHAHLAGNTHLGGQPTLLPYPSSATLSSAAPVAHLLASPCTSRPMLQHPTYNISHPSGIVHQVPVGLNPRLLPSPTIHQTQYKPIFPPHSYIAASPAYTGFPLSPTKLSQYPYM

In the case of O=C(O)c1ccc2c(c1)nc(Nc1cccc(Cl)c1)c1ccncc12 [Compound K, 5-(3-chlorophenylamino)benzo[c][2,6]naphthyridine-8-carboxylic acid], the IC50 (HIPK3) is reported as 0.045 µM, the CLs ([1]; 5.2 mg/kg IV) is reported as 0.1 L/h/kg and the “Terminal T1/2” value ([1]; 5.2 mg/kg IV) is reported as 11.6 h. For the same molecule, the “% F0-inf” value ([1]; 10.5 mg/kg PO) was 47.8%, the Cmax ([1]; plasma, 5.2 mg/kg IV) was 38.7 µg/mL and the AUC(0-inf) ([1]; plasma, 5.2 mg/kg IV, 25 mM sodium phosphate buffer) was 44.3 µg·h/mL. For the same molecule, the Vd ([1]; plasma, 5.2 mg/kg IV, read-out: Vdss) was 2 L/kg, the Cmax ([1]; plasma, 10.5 mg/kg PO) was 7.37 µg/mL and the AUC(0-inf) ([1]; plasma, 10.5 mg/kg PO, 25 mM phosphate buffer) was 42.3 µg·h/mL. The half-life ([1]; plasma, 10.5 mg/kg PO, read-out: Terminal T1/2 (converted)) was 12.3 h, the CLs [2, 6] was 0.9 L/h/kg and the CLs ([2]; Dog, 1.9 mg/kg IV) was 0.7 L/h/kg. For the same molecule, the “Terminal T1/2” value ([2]; Dog, 1.9 mg/kg IV) was 8.3 h, the “% F0-inf” value [2, 7] was 41.8% and the “% F0-inf” value [2, 8] was 51.5%. For the same molecule, the AUC(0-inf) ([2]; dog, iv, 1.6 mg/kg) was 1.64 µg·h/mL, the AUC(0-inf) ([2]; dog, po, 7.7 mg/kg) was 3.44 µg·h/mL and the Cmax [2, 6] was 4.44 µg/mL. For the same molecule, the half-life [2, 6] was 8.3 h, the Vd [2, 6] was 11.3 L/kg and the Cmax ([2]; Dog, 1.9 mg/kg IV) was 5.78 µg/mL. It also gave an AUC(0-inf) ([2]; Dog, 1.9 mg/kg IV, 25 mM sodium phosphate buffer) of 2.54 µg·h/mL, a Vd ([2]; Dog, 1.9 mg/kg IV) of 8.9 L/kg and a Cmax [2, 7] of 2.73 µg/mL. The half-life [2, 7] was 9.9 h, the AUC(0-inf) [2, 8] was 5.65 µg·h/mL and the Cmax [2, 8] was 2.18 µg/mL. The half-life [2, 8] was 5.2 h, the bioavailability ([3]; plasma, po, rat and dog, administered orally) was 20 to 50% and the half-life ([3]; plasma, rat and dog, oral) was 5 to 12 h. For the same molecule, the “clearance rate in vivo” value ([3]; rat and dog) was “relatively low clearance rate”, the half-life ([3]; rat, dog, plasma, other: injected (such as intramuscular or intravenous), when injected) was 5 to 12 h and the “formalin-induced flinching, Phase II” value ([4]; 10-40 minute phase post-injection, single oral dose 30, 100, 200 mg/kg) was “significantly reduced formalin-induced flinching; also recorded: statistically significant effects were seen in two of the three test groups”. The “formalin-induced flinching, Phase II” value ([4]; 10-40 minute phase, 30 mg/kg oral) was “effective”, the “formalin-induced flinching, Phase II” value ([4]; 10-40 minute phase, 200 mg/kg oral) was “effective” and the “formalin-induced flinching, Phase I” value ([4]; first 9 minute phase post-injection, single oral dose 30, 100, 200 mg/kg one hour prior to formalin) was “neither compound affected rates of flinching; also recorded: not statistically significant”. For the same molecule, the “dose-limiting toxicities (DLTs)” value ([5]; Phase I patients) was “No dose-limiting toxicities (DLTs) have yet been observed”, the drug related toxicity ([5]; Phase I patients) was “no drug related toxicity” and the plasma exposures ([5]; after first dose on day 1 and day 21, Cohorts 1-3 (90, 160, 300 mg BID)) was “Dose related plasma exposures were observed”. The accumulation ([5]; day 1 vs day 21) was “No accumulation was observed”, the half-life ([5]; human, in vivo, at steady state, patients, oral BID, read-out: terminal half life (converted)) was roughly 25 h and the “drug-related significant adverse events of grade 3 or higher” value [5, 9] was “no drug-related significant adverse events of grade 3 or higher reported”. For the same molecule, the “tolerability of oral doses” value [5, 9] was “well tolerated”, the “inhibition of virus production” value (HIV-1) was “no significant inhibition of virus production” and the “inhibition of virus production” value (HIV-1 isolates) was “no significant inhibition of virus production”. For the same molecule, the xenograft tumor growth (xenograft tumor) was “single-agent potency in suppressing xenograft tumor growth”.
